These results are taken from patent publication US20110065628A1, “Medication Combinations for the Treatment of Alcoholism and Drug Addiction” (UNIVERSITY OF VIRGINIA PATENT FOUNDATION, priority 2007, published 2011).

Counter-ions that a name gives are not always drawn.

Data set [1] has as its system individuals in alcohol trials. To be noted: cited from earlier work.
Data set [2] has as its system patients with alcohol and nicotine dependence. Briefly: Open-label 8 week naltrexone study with coping skills therapy. In kind it is in vivo, human. To be noted: naltrexone 50 mg/day, 8 weeks. The text has this: In an open-label study, we evaluated the efficacy of naltrexone, an opioid antagonist, in the treatment of alcohol dependence. Since up to 92% of alcoholics are also co-dependent on nicotine, our cohort included dually dependent individuals. […] From a local newspaper advertisement, we enrolled 10 subjects (6 males and 4 females; aged 40±2.56 years) into the study. All patients met DSM III-R criteria for both alcohol and nicotine dependence. Patients were instructed that the goal of treatment was abstinence by the end of the study. Patients received naltrexone (50 mg/day) in unmarked capsules with a riboflavin tracer for an 8 week period. Weekly attendance included combined coping skills therapy for alcohol and nicotine dependence, nursing visits, and completion of rating scales. […] Drop-out rate at 30% was similar to that observed in medication trials for alcoholism. This study supports the clinical evidence that naltrexone is a useful adjunct to Cognitive Behavioral Therapy for the treatment of alcoholism. Naltrexone's effects on cigarette smoking appears small but may warrant further exploration.

For data set [3], the system named is alcohol-preferring (P) rats. The data set is described as follows: Combined topiramate and naltrexone on alcohol consumption. In kind it is in vivo. The method, then:
FIG. 8 graphically illustrates the combined effect of topiramate and naltrexone on alcohol consumption in alcohol-preferring (P) rats. Rats received either vehicle, topiramate at 5 mg/kg, topiramate at 10 mg/kg, naltrexone at 1/mg/kg and topiramate at 5 mg/kg, naltrexone at 1/mg/kg and topiramate at 10 mg/kg, or naltrexone at 1 mg/kg. Each data point represents the mean (±SE) of 8 rats as a change from baseline.
No significant differences were observed following vehicle injection. Data are plotted as change from baseline consumption, and each data point represents a mean (±SE) of 8 rats.

Data set [4] concerns alcohol consumption (8% w/v) in rhesus monkeys. The data set is described as follows: Naltrexone effect on alcohol drinking, fixed ratio schedule, 3 hour sessions. The conditions noted are these: increasing doses of naltrexone 0.1, 0.3, 1.0, 3.0 g/kg; three non food deprived rhesus monkeys. The format is in vivo. The method, then:
FIG. 3 graphically illustrates the effects of Naltrexone on alcohol consumption in non-human primates (rhesus monkeys). Naltrexone was administered at 0.1 (∘), 0.3 ([…]), 1.0 (□) or 3.0 (▪) […]. The ordinate represents cumulative deliveries as percent change from baseline. The abscissa represents time in 10 minute blocks.
During these 3 hour sessions, both water and alcohol were concurrently available.

In the next data set the test system is EOA and LOA alcoholics. To be noted: EOA compared with LOA; 1, 4, 16 μg/kg twice daily, particularly 4 μg/kg; cited from earlier work.
The next data set relates to alcoholics (EOA and LOA). Briefly: 11-week double-blind ondansetron trial with weekly Cognitive Behavioral Therapy. The format is in vivo, human. To be noted: for Drinks/Day / Drinks/Drinking Day: at endpoint; for Drinks/Day: placebo 3.30; for Drinks/Drinking Day: placebo 6.90. The source says:
It was hypothesized herein that the drinking outcomes of EOA, compared with LOA, would be more improved by the selective serotonin antagonist, ondansetron. EOA differ from LOA by having greater serotonergic abnormality, an earlier age of onset, and antisocial behaviors. Thus, EOA may be especially responsive to treatment with a selective serotonergic agent.
The design was as follows: 321 alcoholics (EOA=161; LOA=160; mean age 40.6 years; 70.5% male, and 78.6% white) received one lead in week of single-blind placebo followed by 11 weeks of double-blind outpatient treatment using a 2×4 factorial design which examined age of onset (EOA vs. LOA) and medication dose (placebo, or ondansetron 1, 4, or 16 μg/kg b.i.d) combined with weekly standardized group Cognitive Behavioral Therapy. Efficacy measures were: 1) Self reported drinking (Drinks/Day, Drinks/Drinking Day, Percent Days Abstinent, and Total Days Abstinent/study week), and 2) plasma Carbohydrate Deficient Transferrin level (CDT).

Data set [5] deals with alcohol-preferring (P) rats. Briefly: 24-hour-access two-bottle choice alcohol consumption, topiramate, ondansetron, naltrexone. In kind it is in vivo. The procedure:
FIG. 10, comprising 5 panels—FIGS. 10A to 10E, graphically illustrates the combined effect of topiramate (10 mg/kg, IP), ondansetron (0.001 mg/kg, IP), and naltrexone (1 mg/kg, IP) on alcohol consumption in alcohol-preferring (P) rats. 10A—Topiramate alone; 10B—Ondansetron alone; 10C—Vehicle; 10D—Topiramate+Ondansetron; 10E—Topiramate+Ondansetron+Naltrexone. Data are plotted across seven consecutive sessions, which include a 3-day baseline period, the test session in which the ondansetron, topiramate, and naltrexone injection was administered, and the three sessions that followed the test session. Each data point represents a mean (±SE) of at least six rats. The ordinate represents ethanol intake in g/kg and the abscissa represents session number.
The effects of ondansetron, topiramate, and naltrexone, medications shown to be efficacious in treating alcohol-dependent humans, on measures of alcohol dependence were determined in animal models in order to determine whether these medications may produce additive effects when combined. The experiments examined their ability to modulate total consumption under a 24-hour-access two-bottle choice procedure wherein rats had unlimited access to alcohol solutions (10%) and water. […]

Data set [6] relates to patients with alcoholism (DSM III-R). Briefly: 12-week outpatient placebo-controlled ritanserin trial with Cognitive Behavioral Therapy. The format is in vivo, human. To be noted: ritanserin 2.5 mg or 5 mg, 12 weeks. The procedure:
FIG. 5 graphically illustrates the effects of treatment with Ritanserin in conjunction with Cognitive Behavioral Therapy. The ordinate represents the mean number of drinks since the last visit and the abscissa indicates the time period of assessment in the study (in weeks). Subjects were treated with 2.5 mg Ritanserin ([…]), 5.0 mg Ritanserin ? or received placebo (▴).
In this study, we examined the efficacy of ritanserin on alcohol consumption in a 12-week, outpatient, placebo-controlled clinical trial. This study overlapped in time and recruitment effort with the ondansetron study described above. Therefore, our research group has the expertise to conduct multiple treatment studies simultaneously. Fifty-four patients from our center who met DSM III-R criteria for alcoholism participated and were randomized to receive placebo, 2.5 mg, or 5 mg of ritanserin. All patients received standardized manual driven Cognitive Behavioral Therapy for alcoholism. Cognitive Behavioral Therapy was conducted by counselors with extensive experience with behavioral treatments, and over 500 therapy hours were logged. […] There was no within time effect nor group interaction. Similarly, there was no difference in craving between the treatment groups.

For data set [7], the system named is alcohol-dependent men and women. To be noted: topiramate up to 300 mg per day, 12 weeks; cited from earlier work.
In data set [8] the test system is individuals who take topiramate. To be noted: cited from earlier work.
[9] abbreviates: EOA, ondansetron 1 μg/kg b.i.d, p<0.05.
Setting [10] is: EOA, ondansetron 4 μg/kg b.i.d, p<0.05.
Setting [11] is: N=321, 88 received the 4 μg/kg dose.

With `O=C1CC[C@@]2(O)[C@H]3Cc4ccc(O)c5c4[C@@]2(CCN3CC2CC2)[C@H]1O5` [naltrexone, 17-(Cyclopropylmethyl)-4,5 a-epoxy-3,14-dihydroxymorphinan-6-one hydrochloride], the “rate of subject withdrawal due to naltrexone induced nausea” value in data set [1] (Croop and Colleagues, 570 received naltrexone) is recorded as 15%. For the same compound, the “individuals unable to tolerate naltrexone” value in data set [1] (naltrexone dose of 50 mg/day) is “about 15%”. In [2], the nicotine withdrawal symptoms result is “No patient reported clinically significant nicotine withdrawal symptoms”. In addition, the alcohol consumption in [2] (before 3.29±2.16 drinks/day, p<0.05) was 2.16±1.88 drinks/day; in data set [4] it was “dose-dependent decreases”. In data set [2] (before 21.10±5.57 cigarettes/day), this compound registered a smoking of 15.93±3.09 cigarette/day. In [3] (naltrexone alone, 1 mg/kg intraperitoneally), the “alcohol consumption, change from baseline” value is “did not affect alcohol consumption on its own”.

Regarding `Cc1nccn1CC1CCc2c(c3ccccc3n2C)C1=O` (stereo not shown) [ondansetron, 9-methyl-3-[(2-methyl-1H-imidazol-1-yl)methyl]-1,2,3,9-tetrahydrocarbazol-4-one], in the data set on EOA and LOA alcoholics, the drinking entry is reported as “significant reductions in drinking”. Also, in the data set on alcoholics (EOA and LOA) (setting [9]), the Drinks/Day is listed as 1.89 and the “Drinks/Drinking Day” value is on record as 4.75. For the same compound, in the data set with alcoholics (EOA and LOA) (EOA, ondansetron 1 μg/kg b.i.d, placebo +0.11, p<0.05), the “mean log CDT ratio between endpoint and enrollment” value was −0.17. Besides, in the data set on alcoholics (EOA and LOA) (setting [10]), the Drinks/Day is 1.56 and the “Drinks/Drinking Day” value came out at 4.28. Further, the “Drinking outcomes in LOA” value in the data set with alcoholics (EOA and LOA) (LOA) was “not improved substantially”. Also, in the data set with alcoholics (EOA and LOA) (setting [11]), the nausea result is listed as “nausea was not reported” and the side-effects vs. placebo entry is “no side-effect was reported more often than placebo”. Also, the “Total Days Abstinent/study week” value in the data set with alcoholics (EOA and LOA) (ondansetron 4 μg/kg b.i.d, placebo 5.92, p<0.05) was 6.74. Moreover, the “Percent Days Abstinent” value with alcoholics (EOA and LOA) (ondansetron 4 μg/kg b.i.d, placebo 50.20, p<0.05) is 70.10. In addition, the alcohol consumption entry in data set [5] (ondansetron alone 0.001 mg/kg intraperitoneally (FIG. 10B)) is “did not affect alcohol consumption on its own”.

`Cc1nc2sccn2c(=O)c1CCN1CCC(=C(c2ccc(F)cc2)c2ccc(F)cc2)CC1` [ritanserin]: in data set [6], the alcohol consumption result is recorded as “no clinically significant effect” and the craving result is “no clinically significant effect”.

As for `CC1(C)O[C@@H]2[C@@H](CO[C@@]3(COS(N)(=O)=O)OC(C)(C)O[C@@H]23)O1` [topiramate, 2,3:4,5-Bis-O-(1-methylethylidene)-beta-D-fructopyranose sulfamate], in data set [7], the craving vs. placebo entry is given as “significantly less craving”; the “days of abstinence vs. placebo” value is “significantly more days of abstinence”; the “drinks per day, drinking days, drinks per drinking day vs. placebo” value was “significantly fewer drinks per day, drinking days, and drinks per drinking day”. For the same compound, the “alcohol consumption, change from baseline” value in data set [3] (topiramate alone, 10 mg/kg intraperitoneally, effect not yet significant) is listed as “only modestly decreased alcohol consumption”. In addition, the “decrease in alcohol consumption from baseline” value in [5] (topiramate alone 10 mg/kg intraperitoneally (FIG. 10A)) is reported as 12%±8%. The “cognitive impairment, reported rate” value in data set [8] (general population) was 2.4%. In addition, the “cognitive impairment, occurrence rate” value in data set [8] (substance abuse field) is “about 18.7%”.
